Test results: ChEMBL document CHEMBL1147815, “Stilbene-based anticancer agents: resveratrol analogues active toward HL60 leukemic cells with a non-specific phase mechanism” (Bioorg Med Chem Lett, 2006)
The source made the active and inactive calls. No cut-off for these calls is given here.

Key:
Format in all cases: functional, cell-based
HL-60 [1] = assay: Apoptosis inducing activity in human HL60 cells
HL-60 [2] = assay: Antiproliferative activity against human HL60 cells
HL-60 [3] = assay: Induction of apoptotic sub-G0/G1 phase in HL60 cells; conditions: Homo sapiens
HL-60 [4] = assay: Induction of partial block of S phase in HL60 cells; conditions: Homo sapiens
HL-60 [5] = assay: Decrease of HL60 cells at G2/M phase; conditions: Homo sapiens
HL-60 [6] = assay: Decrease of HL60 cells at G0/G1 phase; conditions: Homo sapiens
HL-60 [7] = assay: Decrease of HL60 cells at S phase; conditions: Homo sapiens

| SMILES | AC50 (HL-60 [1]) [µM] | IC50 (HL-60 [2]) [µM] | Activity (HL-60 [3]) | Activity (HL-60 [4]) | Activity (HL-60 [5]) | Activity (HL-60 [6]) | Activity (HL-60 [7]) |
| --- | --- | --- | --- | --- | --- | --- | --- |
| COc1cccc(/C=C/c2cc(OC)cc(OC)c2)c1 | 70 | 37 | – | – | – | – | – |
| COc1ccc(/C=C/c2cc(OC)cc(OC)c2)cc1 | – | – | Active | Active | – | – | – |
| COc1cc(/C=C\c2cc(OC)c(OC)c(OC)c2)cc(OC)c1 | 2.6 | 1.8 | Active | Active | – | – | – |
| Cc1ccc(/C=C/c2ccc(O)cc2)cc1C | 6 | 3.5 | – | – | – | – | – |
| COc1cccc(/C=C\c2cc(OC)cc(OC)c2)c1 | 5.4 | 2.8 | – | – | – | – | – |
| O=[N+]([O-])c1ccc(/C=C/c2ccc(O)cc2)cc1 | 4.8 | 2.5 | Active | Active | – | – | – |
| COc1ccc(/C=C\c2cc(OC)cc(OC)c2)cc1 [8Z-3,4',5-TRIMETHOXYSTILBENE] | 0.24 | 0.15 | Active | – | Active | Active | Active |
| COc1cc(/C=C/c2cc(OC)c(OC)c(OC)c2)cc(OC)c1 | 42 | 22 | – | – | – | – | – |
